From ChEMBL document CHEMBL1123733, “Structure-activity relationship in PAF-acether. 3. Hydrophobic contribution to agonistic activity” (J Med Chem, 1987)

What was measured:
Oryctolagus cuniculus [1] = species: Oryctolagus cuniculus; assay: Compound was tested in vitro for its ability to aggregate platelet-rich plasma (PRP) in rabbit; format: functional
Oryctolagus cuniculus [2] = species: Oryctolagus cuniculus; assay: Relative aggregant activity in rabbit platelets was determined; format: functional
Rattus norvegicus = assay: (§1) Compound is evaluated for hypotensive activity in anesthetized rat (in vivo); format: functional
Cavia porcellus [3] = assay: Compound was evaluated for in vivo thrombocytopenia effect in anesthetized guinea pig; format: functional, organism-based
Cavia porcellus [4] = assay: Compound was evaluated for in vivo bronchoconstriction in anesthetized guinea pig (3 cm H2O); format: functional, Lung
Oryctolagus cuniculus [5] = species: Oryctolagus cuniculus; assay: Compound was tested in vitro for its ability to aggregate washed rabbit platelets (WP); format: functional
[6] = as §1; format: functional

Row | EC50 (Oryctolagus cuniculus [1]) [nM] | EC50 (Cavia porcellus [3]) [M/kg] | Structure (SMILES) | RA (Oryctolagus cuniculus [2]) | Activity (Cavia porcellus [4]) [M/kg] | further results
1 | 57 |  | CCCCCCCCCCCCCCCCCCOCC(COP(=O)([O-])OCC[N+](C)(C)C)OC(C)=O (stereo not drawn) | 1 |  | 
2 |  |  | CCCCCCCCCCCCCCCC(=O)OCC(COP(=O)([O-])OCC[N+](C)(C)C)OC(C)=O (stereo not drawn) | 0.009 |  | 
3 |  |  | CCCCCCCCCCCCCCCCCCC(COP(=O)([O-])OCC[N+](C)(C)C)OC(C)=O (stereo not drawn) | 0.022 |  | 
4 |  |  | CCCCCCCCCCOc1ccc(COCC(COP(=O)([O-])OCC[N+](C)(C)C)OC(C)=O)cc1 (stereo not drawn) | 0.01 |  | 
5 |  |  | CCCCCC/C=C/CCCCCCCCOCC(COP(=O)([O-])OCC[N+](C)(C)C)OC(C)=O (stereo not drawn) | 1.6 |  | 
6 | 17000 | 1e-07 | CCCCCCOCC(COP(=O)([O-])OCC[N+](C)(C)C)OC(C)=O (stereo not drawn) | 0.003 | 2.6e-08 | EC30 (Rattus norvegicus): 7e-07 M/kg; EC50 (Oryctolagus cuniculus [5]): 310 nM
7 | 100000 | 1e-06 | CCCCOCC(COP(=O)([O-])OCC[N+](C)(C)C)OC(C)=O (stereo not drawn) | 0.001 | 1e-06 | EC30 (Rattus norvegicus): 1.1e-06 M/kg; EC50 (Oryctolagus cuniculus [5]): 1800 nM
8 |  |  | CCCCCCCCCCCCCCCCCC(=O)OCC(COP(=O)([O-])OCC[N+](C)(C)C)OC(C)=O (stereo not drawn) | 0.004 |  | 
9 |  |  | CCCCC/C=C/C/C=C/CCCCCCCCOCC(COP(=O)([O-])OCC[N+](C)(C)C)OC(C)=O (stereo not drawn) | 2.667 |  | 
10 |  |  | CCCCCCCCCCCCCCCCCCSCC(COP(=O)([O-])OCC[N+](C)(C)C)OC(C)=O (stereo not drawn) | 0 |  | 
11 | > 100000 | > 1.6e-06 | COCC(COP(=O)([O-])OCC[N+](C)(C)C)OC(C)=O (stereo not drawn) |  | >1.6e-06 | EC30 (Rattus norvegicus): >1.6e-06 M/kg
12 | 190 | 1.8e-10 | CCCCCCCCCCCCCCCCCCCCOCC(COP(=O)([O-])OCC[N+](C)(C)C)OC(C)=O (stereo not drawn) | 0.8 | 1.3e-09 | EC30 (Rattus norvegicus): 2.4e-09 M/kg; EC50 (Oryctolagus cuniculus [5]): 0.33 nM
13 |  |  | CCCCCCCCCCCCCCCCCC(COP(=O)([O-])OCC[N+](C)(C)C)OC(C)=O (stereo not drawn) | 0.005 |  | 
14 | 230 | 6e-10 | CCCCCCCCCCCCOCC(COP(=O)([O-])OCC[N+](C)(C)C)OC(C)=O (stereo not drawn) | 1.248 | 1.2e-10 | EC30 (Rattus norvegicus): 3.3e-09 M/kg; EC50 (Oryctolagus cuniculus [5]): 0.45 nM
15 | 19 | 1.8e-10 | CCCCCCCCCCCCCCCCCCOC[C@H](COP(=O)([O-])OCC[N+](C)(C)C)OC(C)=O |  | 1.8e-10 | EC30 (Rattus norvegicus): 4.9e-10 M/kg
16 |  |  | CCCCCCCCCCCCCCCCc1ccccc1OCC(COP(=O)([O-])OCC[N+](C)(C)C)OC(C)=O (stereo not drawn) | 0.002 |  | 
17 |  |  | CCCCCCCCCCCCCCCCOCCC(COP(=O)([O-])OCC[N+](C)(C)C)OC(C)=O (stereo not drawn) | 0.015 |  | 
18 |  |  | CCCCCCCCCCCCCCc1cccc(OCC(COP(=O)([O-])OCC[N+](C)(C)C)OC(C)=O)c1 (stereo not drawn) | 0.364 |  | 
19 |  |  | CCCCCCCCCCOCCOCCOCC(COP(=O)([O-])OCC[N+](C)(C)C)OC(C)=O (stereo not drawn) | 0.28 |  | 
20 | 1200 | 6e-10 | CCCCCCCCCCOCC(COP(=O)([O-])OCC[N+](C)(C)C)OC(C)=O (stereo not drawn) | 1.048 | 2.5e-10 | EC30 [6]: 7e-09 M/kg; EC50 (Oryctolagus cuniculus [5]): 8.5 nM
21 |  |  | CCCCCCCCCCCCCCCCCCCCC(COP(=O)([O-])OCC[N+](C)(C)C)OC(C)=O (stereo not drawn) | 0 |  | 
22 |  |  | CCCCCCCCCCOCc1ccc(OCC(COP(=O)([O-])OCC[N+](C)(C)C)OC(C)=O)cc1 (stereo not drawn) | 0.01 |  | 
23 |  |  | COCCOCCOCCCCCCCCOCC(COP(=O)([O-])OCC[N+](C)(C)C)OC(C)=O (stereo not drawn) | 0.007 |  | 
24 |  |  | CCCCCCCCCCCCCCc1ccc(OCC(COP(=O)([O-])OCC[N+](C)(C)C)OC(C)=O)cc1 (stereo not drawn) | 0.302 |  | 
25 |  |  | CCCCCCCC/C=C/CCCCCCCCOCC(COP(=O)([O-])OCC[N+](C)(C)C)OC(C)=O (stereo not drawn) | 2 |  | 

Row | Structure (SMILES) | EC50 (Oryctolagus cuniculus [1]) [nM] | EC50 (Cavia porcellus [3]) [M/kg] | RA (Oryctolagus cuniculus [2]) | Activity (Cavia porcellus [4]) [M/kg] | further results
26 | CCCCCCCCCCCCCCCCOCC(COP(=O)([O-])OCC[N+](C)(C)C)OC(C)=O (stereo not drawn) [PLATELET ACTIVATING FACTOR] | 45 | 2e-10 | 1.268 | 5e-11 | EC30 (Rattus norvegicus): 1.3e-10 M/kg; EC50 (Oryctolagus cuniculus [5]): 0.2 nM
